ChEMBL document CHEMBL1201862, “PubChem BioAssay data set” (2004)
“And” between values parts separate entries of the source, which are not always exact repeats. Equal entries are not always repeated. The source made the active and inactive calls.

Assays:
[1] = biological target: Disintegrin and metalloproteinase domain-containing protein 17 (Homo sapiens, UniProt P78536); assay: inhibition of ADAM17 substrate cleavage – biochemical, quenched FRET substrate, counter-screen for ADAM10 exosite inhibitor project, dose response (AID 743253)
[2] = potency of ADAM10 substrate cleavage blockers – biochemical, QFRET, dose response (AID 743254);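 note: ADAM10 enzyme with the DM2 quenched FRET peptide as substrate; EDANS fluorescence gain as the protease cuts the substrate; inhibitor potency against ADAM10 proteolytic activity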
CAAX prenyl protease 2 [3] = biological target: T1, CAAX prenyl protease 2 (Saccharomyces cerevisiae S288c, UniProt Q03530); type: biochemical
T1 sequence (Q03530 whole entry): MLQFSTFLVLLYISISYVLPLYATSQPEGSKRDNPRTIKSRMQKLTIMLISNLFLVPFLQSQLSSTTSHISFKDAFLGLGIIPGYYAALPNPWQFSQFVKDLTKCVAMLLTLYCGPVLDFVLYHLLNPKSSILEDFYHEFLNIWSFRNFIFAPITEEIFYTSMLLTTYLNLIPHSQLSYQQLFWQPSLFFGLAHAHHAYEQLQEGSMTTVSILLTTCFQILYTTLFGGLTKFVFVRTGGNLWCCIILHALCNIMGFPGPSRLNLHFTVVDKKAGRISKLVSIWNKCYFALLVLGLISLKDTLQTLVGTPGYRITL

CAAX prenyl protease 2 [4] = biological target: T1, CAAX prenyl protease 2; assay: inhibition of Rce1p peptide cleavage – biochemical, plate reader, dry powder retest, dose response (AID 588851)
INS1 [5] = assay: beta-cell survival under cytokine stress – INS-1E, ATP luminescence, dry powder, dose response (AID 488844); type: functional, cell-based; details: Rattus norvegicus
INS1 [6] = assay: suppression of NO production in INS-1E cells – cell-based, Griess absorbance, dry powder, dose response (AID 488866); type: functional; details: Rattus norvegicus
INS1 [7] = assay: INS-1E mitochondrial potential rescue under cytokines – cell-based, JC-1 fluorescence ratio, dry powder, dose response (AID 488931); type: functional; details: Rattus norvegicus
INS1 [8] = assay: suppression of NO production in INS-1E cells – cell-based, Griess absorbance, dry powder, set 2, dose response (AID 488868); type: functional; details: Rattus norvegicus
INS1 [9] = assay: suppression of cytokine-induced beta-cell apoptosis – INS-1E, caspase luminescence, dry powder, beta-cell apoptosis inhibitor project, dose response (AID 488848); type: functional, cell-based; details: Rattus norvegicus
[10] = suppression of NO production in INS-1E cells – cell-based, Griess absorbance, dry powder, set 3, dose response (AID 488870); type: functional; details: Rattus norvegicus
[11] = Reduced DLD-1 viability, concentration-response, CellTiter-Glo luminescence (AID 1117352); type: functional
[12] = cytotoxicity toward HT-29 cells – cell-based, CellTiter-Glo luminescence, IC50, dose response (AID 1117330); type: functional
[13] = CellTiter-Glo luminescence survival assay, SW480 colon tumor line, concentration-response curve, half-maximal inhibitory concentration (AID 1117338); type: functional
HEK293 = assay: EBV LMP1 TES2 canonical NF-kB signalling blockers – cell-based, HEK293, luciferase, cherry-pick, dose response (AID 588343); type: functional; details: Homo sapiens
[14] = HEK-293T cell viability reduction – luminescence, B-cell screen hits, cytotoxicity control for BCR NF-kB inhibitor project, dose response (AID 489021); type: functional, cell-based;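 note: HEK-293T cells carrying an NF-kB luciferase reporter; cells exposed to compound for about 14 hours before viability readout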
[15] = biological target: Latent membrane protein 1 (Human herpesvirus 4 (strain B95-8), UniProt P03230); assay: LMP1 TES1 pathway selectivity over dsRED control – imaging, HEK293T, dual-color eGFP/dsRED, cherry-picks, selectivity assay for LMP1 NF-kB inhibitor project, dose response (AID 588398); type: functional, cell-based
[16] = SNU-C1 cell viability reduction, dose response, CellTiter-Glo luminescence (AID 1117323); type: functional, cell-based
[17] = Luminescence Cell-Based Dose Retest to Confirm Inhibitors of Cancer Stem Cells. [Related pubchem assays (depositor defined):AID2717, AID2721]; type: functional; details: Homo sapiens
[18] = Luminescence-based dose response cell-based high throughput screening assay for cytotoxic compounds using the IEC-6 intestinal epithelial cell line. [Related pubchem assays: 1858 (Summary AID.), 1825 (Counterscreen.), 1907 (Confirmation screen.)]; type: functional
Exodeoxyribonuclease V = biological target: T2, Exodeoxyribonuclease V (Escherichia coli (strain K12), UniProt P04993+P07648+P08394); assay: RecBCD inhibition via phage-restricted bacterial growth – absorbance, V66 E. coli, mutant T4 phage, counter-screen for AddAB inhibitor project, dose response (AID 492957); type: functional, cell-based, Escherichia coli str. K-12 substr. MG1655
T2 sequence (P04993 whole entry): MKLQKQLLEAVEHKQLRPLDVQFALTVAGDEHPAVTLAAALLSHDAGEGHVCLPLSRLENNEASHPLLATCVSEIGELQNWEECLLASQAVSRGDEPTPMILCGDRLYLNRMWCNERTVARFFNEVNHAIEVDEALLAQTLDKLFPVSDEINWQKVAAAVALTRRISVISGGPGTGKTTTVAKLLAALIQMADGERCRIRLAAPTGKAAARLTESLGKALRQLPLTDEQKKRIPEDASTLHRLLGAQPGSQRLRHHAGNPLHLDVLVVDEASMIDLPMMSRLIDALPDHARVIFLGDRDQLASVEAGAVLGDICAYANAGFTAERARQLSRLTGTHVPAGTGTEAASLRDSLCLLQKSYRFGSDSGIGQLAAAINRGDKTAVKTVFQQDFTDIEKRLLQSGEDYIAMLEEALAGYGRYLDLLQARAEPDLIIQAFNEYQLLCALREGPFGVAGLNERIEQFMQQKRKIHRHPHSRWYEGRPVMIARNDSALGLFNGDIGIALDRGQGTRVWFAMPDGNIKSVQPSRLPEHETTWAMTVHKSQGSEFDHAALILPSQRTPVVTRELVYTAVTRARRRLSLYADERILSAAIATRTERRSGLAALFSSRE
T2 sequence (P07648 whole entry): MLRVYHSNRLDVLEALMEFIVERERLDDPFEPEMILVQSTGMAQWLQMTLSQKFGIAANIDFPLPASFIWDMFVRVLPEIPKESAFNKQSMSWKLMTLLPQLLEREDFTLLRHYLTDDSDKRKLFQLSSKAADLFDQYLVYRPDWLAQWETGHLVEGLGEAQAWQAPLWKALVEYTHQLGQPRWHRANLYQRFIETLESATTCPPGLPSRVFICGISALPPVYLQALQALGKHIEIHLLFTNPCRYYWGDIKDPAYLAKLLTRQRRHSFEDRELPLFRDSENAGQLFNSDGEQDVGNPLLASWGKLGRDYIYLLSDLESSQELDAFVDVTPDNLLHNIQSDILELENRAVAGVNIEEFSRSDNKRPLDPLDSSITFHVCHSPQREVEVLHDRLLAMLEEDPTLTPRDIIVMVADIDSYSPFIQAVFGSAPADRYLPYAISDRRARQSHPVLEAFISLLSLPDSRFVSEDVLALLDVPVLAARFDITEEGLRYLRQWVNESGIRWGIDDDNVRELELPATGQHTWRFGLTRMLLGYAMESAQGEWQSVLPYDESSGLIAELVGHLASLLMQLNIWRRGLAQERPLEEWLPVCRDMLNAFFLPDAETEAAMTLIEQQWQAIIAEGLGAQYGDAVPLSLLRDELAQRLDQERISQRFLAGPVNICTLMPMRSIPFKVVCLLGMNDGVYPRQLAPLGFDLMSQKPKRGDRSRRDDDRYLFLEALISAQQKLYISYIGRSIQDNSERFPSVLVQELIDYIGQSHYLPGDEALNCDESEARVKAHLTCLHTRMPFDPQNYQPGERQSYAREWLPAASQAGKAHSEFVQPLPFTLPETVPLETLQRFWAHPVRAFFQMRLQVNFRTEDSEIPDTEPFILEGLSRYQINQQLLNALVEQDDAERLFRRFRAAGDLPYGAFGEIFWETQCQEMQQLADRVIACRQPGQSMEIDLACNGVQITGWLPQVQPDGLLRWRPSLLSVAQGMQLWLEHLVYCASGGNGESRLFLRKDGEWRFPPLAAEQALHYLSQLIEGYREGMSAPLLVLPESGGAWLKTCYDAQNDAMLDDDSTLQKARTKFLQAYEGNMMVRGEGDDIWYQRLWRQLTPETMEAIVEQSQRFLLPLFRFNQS
T2 sequence (P08394 whole entry): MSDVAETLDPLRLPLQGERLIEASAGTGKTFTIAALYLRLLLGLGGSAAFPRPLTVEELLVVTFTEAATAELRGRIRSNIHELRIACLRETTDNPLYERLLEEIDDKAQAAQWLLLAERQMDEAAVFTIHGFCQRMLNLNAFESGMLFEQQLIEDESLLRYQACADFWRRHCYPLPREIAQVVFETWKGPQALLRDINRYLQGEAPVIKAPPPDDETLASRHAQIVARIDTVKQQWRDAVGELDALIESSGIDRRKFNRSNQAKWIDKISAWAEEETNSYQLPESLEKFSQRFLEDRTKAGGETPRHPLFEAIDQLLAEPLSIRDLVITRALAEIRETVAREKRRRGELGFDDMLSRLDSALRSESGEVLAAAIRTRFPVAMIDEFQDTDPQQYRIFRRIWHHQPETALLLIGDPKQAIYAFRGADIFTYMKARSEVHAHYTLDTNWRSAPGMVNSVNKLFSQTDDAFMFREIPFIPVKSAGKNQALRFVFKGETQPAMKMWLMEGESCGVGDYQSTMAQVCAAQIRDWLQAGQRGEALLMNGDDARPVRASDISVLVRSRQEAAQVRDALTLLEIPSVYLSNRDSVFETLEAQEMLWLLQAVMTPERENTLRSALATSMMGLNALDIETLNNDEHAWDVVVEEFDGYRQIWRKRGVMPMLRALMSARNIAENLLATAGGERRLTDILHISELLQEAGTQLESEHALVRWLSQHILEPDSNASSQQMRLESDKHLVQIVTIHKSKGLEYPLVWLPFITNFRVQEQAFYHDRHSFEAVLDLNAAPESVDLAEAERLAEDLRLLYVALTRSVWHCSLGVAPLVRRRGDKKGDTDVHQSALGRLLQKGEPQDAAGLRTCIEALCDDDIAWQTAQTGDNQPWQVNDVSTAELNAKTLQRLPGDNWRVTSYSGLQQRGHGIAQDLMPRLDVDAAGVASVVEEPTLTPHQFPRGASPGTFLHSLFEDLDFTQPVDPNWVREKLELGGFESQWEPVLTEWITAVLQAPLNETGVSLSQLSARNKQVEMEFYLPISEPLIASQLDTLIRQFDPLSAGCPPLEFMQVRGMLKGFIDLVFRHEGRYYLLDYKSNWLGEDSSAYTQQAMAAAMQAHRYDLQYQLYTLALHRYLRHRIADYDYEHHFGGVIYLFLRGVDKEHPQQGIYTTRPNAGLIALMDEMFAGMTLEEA

[19] = cytotoxicity toward Colo320 cells – cell-based, CellTiter-Glo luminescence, IC50, dose response (AID 1117334); type: functional; details: COLO 320

Chain of Disintegrin and metalloproteinase domain-containing protein 17 (P78536 whole entry, the tested form may be a part): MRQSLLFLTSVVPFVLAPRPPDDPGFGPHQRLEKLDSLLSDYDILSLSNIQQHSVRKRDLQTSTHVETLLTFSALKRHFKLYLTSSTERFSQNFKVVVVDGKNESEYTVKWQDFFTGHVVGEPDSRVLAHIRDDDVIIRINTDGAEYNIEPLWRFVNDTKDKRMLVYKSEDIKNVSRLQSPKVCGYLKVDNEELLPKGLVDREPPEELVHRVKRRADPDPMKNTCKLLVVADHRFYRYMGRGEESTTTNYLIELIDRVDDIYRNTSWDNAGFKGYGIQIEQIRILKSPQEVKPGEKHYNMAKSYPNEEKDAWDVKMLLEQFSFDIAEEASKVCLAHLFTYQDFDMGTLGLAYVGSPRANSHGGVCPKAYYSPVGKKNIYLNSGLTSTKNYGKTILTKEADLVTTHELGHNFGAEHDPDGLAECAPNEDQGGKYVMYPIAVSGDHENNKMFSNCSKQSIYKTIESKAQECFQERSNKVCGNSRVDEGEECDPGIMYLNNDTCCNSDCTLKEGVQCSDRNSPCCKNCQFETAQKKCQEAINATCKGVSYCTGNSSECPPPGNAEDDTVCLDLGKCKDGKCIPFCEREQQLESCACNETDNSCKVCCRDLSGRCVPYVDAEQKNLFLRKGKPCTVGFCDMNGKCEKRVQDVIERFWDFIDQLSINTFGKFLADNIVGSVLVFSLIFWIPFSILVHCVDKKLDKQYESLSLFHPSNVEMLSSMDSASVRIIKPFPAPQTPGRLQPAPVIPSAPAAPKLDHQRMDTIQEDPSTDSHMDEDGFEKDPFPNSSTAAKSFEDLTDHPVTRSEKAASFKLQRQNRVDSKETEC
Chain of Latent membrane protein 1 (P03230 whole entry): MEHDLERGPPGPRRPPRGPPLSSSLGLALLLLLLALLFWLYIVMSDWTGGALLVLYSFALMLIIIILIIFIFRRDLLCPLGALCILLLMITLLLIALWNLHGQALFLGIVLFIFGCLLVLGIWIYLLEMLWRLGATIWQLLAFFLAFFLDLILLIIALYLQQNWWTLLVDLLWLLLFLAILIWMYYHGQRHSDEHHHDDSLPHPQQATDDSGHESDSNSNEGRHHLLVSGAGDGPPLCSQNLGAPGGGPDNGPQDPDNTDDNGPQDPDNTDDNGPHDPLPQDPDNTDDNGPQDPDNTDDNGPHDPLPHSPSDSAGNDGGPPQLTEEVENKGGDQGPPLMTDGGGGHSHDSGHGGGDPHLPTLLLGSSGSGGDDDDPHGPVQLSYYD

In the case of CC(C)c1c(C(=O)N/N=C/c2cccc3ccccc23)nnn1-c1nonc1N, the IC50 [1] is reported as > 69.5 µM (inactive), the IC50 [2] is reported as > 69.5 µM (inactive) and the AC50 (CAAX prenyl protease 2 [3]) is reported as 0.117 µM (active). For the same compound, the AC50 (CAAX prenyl protease 2 [4]) was 3.25 µM (active).
With COc1ccc(S(=O)(=O)N(C)C[C@@H]2Oc3c(NC(=O)Nc4cccc5ccccc45)cccc3C(=O)N([C@@H](C)CO)C[C@H]2C)cc1C the AC50 (INS1 [5]) was 0.436 µM (active), the AC50 (INS1 [6]) was 45.2 µM (active) and the AC50 (INS1 [7]) was 4.91 µM (active). For the same compound, the AC50 (INS1 [8]) was 25.1 µM (active), the AC50 (INS1 [9]) was 0.414 µM (active) and the AC50 [10] was 34.5 µM (active).
In the case of O=c1[nH]c(=O)n([C@H]2C[C@H](O)[C@@H](CO)O2)cc1C(F)(F)F [TRIFLURIDINE], the IC50 [11] is reported as > 20 µM (inactive), the IC50 [12] is reported as > 20 µM (inactive) and the IC50 [13] is reported as > 20 µM (inactive). For the same compound, the AC50 (HEK293) was 3.28 µM (active), the IC50 [14] was > 80 µM (inactive) and the AC50 [15] was 1.13 µM (active). For the same compound, the IC50 [16] was > 20 µM (inactive), the AC50 [17] was 1.66 µM (active) and the IC50 [18] was 1.75 µM (active). For the same compound, the IC50 (Exodeoxyribonuclease V) was > 118 µM (inactive) and > 119 µM (inactive) and the IC50 [19] was > 20 µM (inactive).
